Source: ChEMBL document CHEMBL1154508, “Discovery of GSK345931A: An EP(1) receptor antagonist with efficacy in preclinical models of inflammatory pain” (Bioorg Med Chem Lett, 2009)

Experiments:
[1] = Drug level in blood of sub-chronic rat joint pain efficacy model satellite animal group at 5 mg/kg bid measured on day 5 after 1 hr post dose; assay type: ADME, organism-based; set-up: dose 5 mg/kg; conditions: read-out: Drug uptake
Thromboxane A2 receptor = biological target: T1, Thromboxane A2 receptor (Homo sapiens, UniProt P21731); test: Activity at TP receptor by FLIPR method
T1 sequence (P21731 whole entry): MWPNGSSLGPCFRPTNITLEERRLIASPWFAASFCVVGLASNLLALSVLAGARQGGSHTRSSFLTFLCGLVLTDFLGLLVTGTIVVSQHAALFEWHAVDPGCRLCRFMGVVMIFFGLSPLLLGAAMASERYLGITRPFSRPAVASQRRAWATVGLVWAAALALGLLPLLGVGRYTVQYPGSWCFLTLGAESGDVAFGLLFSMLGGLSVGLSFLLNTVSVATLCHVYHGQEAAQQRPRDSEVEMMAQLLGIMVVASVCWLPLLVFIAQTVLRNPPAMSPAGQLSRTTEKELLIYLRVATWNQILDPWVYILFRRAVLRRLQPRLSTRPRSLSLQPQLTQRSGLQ

[2] = biological target: Prostaglandin F2-alpha receptor (Homo sapiens, UniProt P43088); test: Activity at PGF2alpha receptor by FLIPR method
Prostaglandin F2-alpha receptor, sequence (P43088 whole entry): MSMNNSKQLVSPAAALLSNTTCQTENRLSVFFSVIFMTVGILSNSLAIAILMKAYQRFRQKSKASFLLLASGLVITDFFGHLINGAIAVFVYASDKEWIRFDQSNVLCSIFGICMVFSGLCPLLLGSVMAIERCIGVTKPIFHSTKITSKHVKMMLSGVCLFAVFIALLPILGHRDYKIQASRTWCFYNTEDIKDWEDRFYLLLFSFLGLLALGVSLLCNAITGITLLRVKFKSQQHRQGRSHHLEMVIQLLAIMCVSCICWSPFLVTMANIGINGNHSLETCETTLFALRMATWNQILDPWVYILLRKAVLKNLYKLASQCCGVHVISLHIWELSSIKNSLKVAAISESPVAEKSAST

[3] = biological target: T2, Peroxisome proliferator-activated receptor gamma (Homo sapiens, UniProt P37231); test: Activity at PPARgamma
T2 sequence (P37231 whole entry): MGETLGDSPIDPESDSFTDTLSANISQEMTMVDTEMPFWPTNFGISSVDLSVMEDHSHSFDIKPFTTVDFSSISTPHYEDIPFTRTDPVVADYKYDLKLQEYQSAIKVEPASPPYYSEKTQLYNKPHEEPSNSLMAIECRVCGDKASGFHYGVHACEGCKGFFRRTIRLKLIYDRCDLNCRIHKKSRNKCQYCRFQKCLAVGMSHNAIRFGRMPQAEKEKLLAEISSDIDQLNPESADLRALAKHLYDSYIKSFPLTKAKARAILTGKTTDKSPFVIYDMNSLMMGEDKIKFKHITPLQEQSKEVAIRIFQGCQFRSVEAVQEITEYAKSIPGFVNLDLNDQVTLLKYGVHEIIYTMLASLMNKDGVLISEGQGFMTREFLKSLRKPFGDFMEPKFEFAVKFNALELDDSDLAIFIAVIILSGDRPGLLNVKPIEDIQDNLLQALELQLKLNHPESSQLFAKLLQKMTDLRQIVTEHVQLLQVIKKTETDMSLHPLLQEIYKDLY

[4] = biological target: T3, Prostaglandin E2 receptor EP1 subtype (Rattus norvegicus, UniProt P70597); test: Binding affinity to rat EP1 receptor
T3 sequence (P70597 whole entry): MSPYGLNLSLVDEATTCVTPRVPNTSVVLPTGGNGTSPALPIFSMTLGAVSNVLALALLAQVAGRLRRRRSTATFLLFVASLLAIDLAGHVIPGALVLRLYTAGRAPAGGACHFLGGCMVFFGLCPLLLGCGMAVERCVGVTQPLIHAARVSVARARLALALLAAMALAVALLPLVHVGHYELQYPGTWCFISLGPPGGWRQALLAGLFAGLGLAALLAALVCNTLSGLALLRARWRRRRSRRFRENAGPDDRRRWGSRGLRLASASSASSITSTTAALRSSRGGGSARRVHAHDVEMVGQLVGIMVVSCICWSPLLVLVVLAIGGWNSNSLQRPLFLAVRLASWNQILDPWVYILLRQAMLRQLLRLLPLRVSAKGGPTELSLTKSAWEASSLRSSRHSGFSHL

Blood = test: Fraction unbound in rat blood; assay type: ADME, tissue-based
[5] = Aqueous solubility in water after 2 hrs; assay type: physicochemical
[6] = Aqueous solubility in water after 24 hrs; assay type: physicochemical
[7] = Solubility in simulated gastric fluid after 24 hrs; assay type: physicochemical
[8] = Solubility in fed state simulated intestinal fluid after 2 hrs; assay type: physicochemical
[9] = Solubility in fed state simulated intestinal fluid after 24 hrs; assay type: physicochemical
[10] = Volume of distribution at steady state in rat at 1 mg/kg, iv; assay type: ADME, organism-based; set-up: dose 1 mg/kg, route intravenous; conditions: in vivo, read-out: Vdss
[11] = Blood clearance in cynomolgus monkey at 1 mg/kg, iv; assay type: ADME, organism-based, Macaca fascicularis; set-up: dose 1 mg/kg, route intravenous
[12] = Drug level in rat blood at 0.28 mg/kg/hr, iv for 18 hrs; assay type: ADME, organism-based; set-up: route intravenous; conditions: read-out: Drug uptake
[13] = Steady state blood clearance in rat at 0.28 mg/kg/hr, iv for 18 hrs; assay type: ADME, organism-based; set-up: route intravenous
Rattus norvegicus = species: Rattus norvegicus; test: Antiinflammatory activity against complete Freund's adjuvant-induced hypersensitivity in rat inflammatory pain model; assay type: functional
[14] = Drug level in brain of complete Freund's adjuvant-induced rat inflammatory pain model at 1 mg/kg, po after 1 hr; assay type: ADME, organism-based; set-up: dose 1 mg/kg, route oral; conditions: read-out: Drug uptake
[15] = Drug level in blood of complete Freund's adjuvant-induced rat inflammatory pain model at 1 mg/kg, po after 1 hr; assay type: ADME, organism-based; set-up: dose 1 mg/kg, route oral; conditions: read-out: Drug uptake
[16] = Drug level in brain of sub-chronic rat joint pain efficacy model treatment group at 5 mg/kg bid measured on day 5 after 1 hr post dose; assay type: ADME, organism-based; set-up: dose 5 mg/kg; conditions: read-out: Drug uptake
[17] = biological target: T2, Peroxisome proliferator-activated receptor gamma; test: Binding affinity to PPARgamma
[18] = biological target: T4, Peroxisome proliferator-activated receptor alpha (Homo sapiens, UniProt Q07869); test: Binding affinity to PPARalpha
T4 sequence (Q07869 whole entry): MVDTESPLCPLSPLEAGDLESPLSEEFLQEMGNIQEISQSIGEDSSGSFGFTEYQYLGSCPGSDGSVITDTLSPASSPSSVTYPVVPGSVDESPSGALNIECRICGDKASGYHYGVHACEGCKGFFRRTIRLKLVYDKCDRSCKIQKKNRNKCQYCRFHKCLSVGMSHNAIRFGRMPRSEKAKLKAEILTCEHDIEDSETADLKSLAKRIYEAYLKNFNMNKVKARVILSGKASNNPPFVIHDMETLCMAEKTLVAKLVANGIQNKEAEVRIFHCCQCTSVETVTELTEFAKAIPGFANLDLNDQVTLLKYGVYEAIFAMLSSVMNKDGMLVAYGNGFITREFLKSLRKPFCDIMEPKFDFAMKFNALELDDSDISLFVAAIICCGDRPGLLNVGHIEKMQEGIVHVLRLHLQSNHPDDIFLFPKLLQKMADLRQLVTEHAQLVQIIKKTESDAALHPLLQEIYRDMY

[19] = biological target: T5, Prostaglandin E2 receptor EP1 subtype (Homo sapiens, UniProt P34995); test: Antagonist activity at EP1 receptor by FLIPR calcium mobilization assay
T5 sequence (P34995 whole entry): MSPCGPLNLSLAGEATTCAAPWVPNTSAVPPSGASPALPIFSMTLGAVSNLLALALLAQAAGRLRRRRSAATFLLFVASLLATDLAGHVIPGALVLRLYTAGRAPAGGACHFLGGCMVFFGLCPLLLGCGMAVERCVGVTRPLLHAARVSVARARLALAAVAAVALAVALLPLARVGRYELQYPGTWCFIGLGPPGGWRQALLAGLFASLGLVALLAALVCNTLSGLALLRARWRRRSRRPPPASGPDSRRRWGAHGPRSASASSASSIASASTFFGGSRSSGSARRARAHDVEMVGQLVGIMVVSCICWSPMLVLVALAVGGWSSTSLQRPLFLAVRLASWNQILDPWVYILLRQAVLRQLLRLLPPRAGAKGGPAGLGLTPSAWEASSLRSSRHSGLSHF

- concentration at 1 h [1]: 1660 nM
- IC50 (Thromboxane A2 receptor): 1580 nM
- IC50 [2]: > 10000 nM
- EC50 [3]: 3980 nM
- IC50 [4]: 12.6 nM
- Fu (Blood): 0.5%
- solubility at 2 h [5]: 499 µg/mL
- solubility at 24 h [6]: 612 µg/mL
- solubility at 24 h [7]: 11 µg/mL
- solubility at 2 h [8]: 1220 µg/mL
- solubility at 24 h [9]: 1140 µg/mL
- Vd [10]: 1.9 L/kg
- clearance [11]: 26 mL/min/kg
- concentration at 18 h [12]: 1660 nM
- clearance [13]: 8 mL/min/kg
- concentration at 1 h [14]: 317 nM
- concentration at 1 h [15]: 948 nM
- concentration at 1 h [16]: 1070 nM
- Ki [17]: 12600 nM
- Ki [18]: > 20000 nM
- Ki [19]: 2.51 nM
SMILES: CC(C)COc1ccc(Cl)cc1-c1ccccc1-c1cccc(C(=O)[O-])n1.[Na+]
- ED50 (Rattus norvegicus): 1.6 mg/kg
